In paper PMC10810264 (Microchemical journal : devoted to the application of …, 2023):
≈ marks a conversion by molar mass, not a printed value.

System: anti-GEN scFv-AP fusion protein
Assay: direct competitive chemiluminescent enzyme immunoassay
Type: binding, murine
Conditions: dcCLEIA; CR=[IC50(gentamicin)/IC50(analyte)]×100%

Compound	Cross-reactivity [%]
CC1(C)S[C@@H]2[C@H](NC(=O)[C@H](N)c3ccccc3)C(=O)N2[C@H]1C(=O)O [Ampicillin]	<0.10
O=C(N[C@H](CO)[C@H](O)c1ccc([N+](=O)[O-])cc1)C(Cl)Cl [Chloramphenicol]	<0.10
CNC(C)C1CCC(N)C(OC2C(N)CC(N)C(OC3OCC(C)(O)C(NC)C3O)C2O)O1 (stereo not shown) [Gentamicin]	100

The next lines start with the values.

Cross-reactivity [%]	Compound
<0.10	[H]/N=C(/N)N[C@H]1[C@H](O)[C@@H](O)[C@H](O[C@@H]2O[C@@H](C)[C@](O)(C=O)[C@H]2O[C@@H]2O[C@@H](CO)[C@H](O)[C@@H](O)[C@@H]2NC)[C@@H](N/C(N)=N\[H])[C@@H]1O [Streptomycin]
<0.10	Neomycin
<0.10	NC[C@H]1O[C@H](O[C@H]2[C@H](O)[C@@H](O[C@H]3O[C@H](CO)[C@@H](O)[C@H](N)[C@H]3O)[C@H](N)C[C@@H]2N)[C@H](O)[C@@H](O)[C@@H]1O [kanamycin]

System: anti-GEN scFv-AP fusion protein
Assay: direct competitive ELISA
Type: binding, murine
Conditions: dcELISA, AP substrate p-nitrophenyl phosphate, OD 405 nm

IC50 [ng/mL]	Compound
7.693 (≈ 0.0161 µM)	CNC(C)C1CCC(N)C(OC2C(N)CC(N)C(OC3OCC(C)(O)C(NC)C3O)C2O)O1 (stereo not shown) [Gentamicin]
